The target in series [1] is T1, TRPV3 (Mus musculus, UniProt Q8K424).
T1 construct: expressed in transfected cells; host or cells: CHO cells (ATCC CRL-9096), plasmid pcDNA3.1-mTrpv3, a gift from Korea University
T1 sequence (Q8K424 1-791): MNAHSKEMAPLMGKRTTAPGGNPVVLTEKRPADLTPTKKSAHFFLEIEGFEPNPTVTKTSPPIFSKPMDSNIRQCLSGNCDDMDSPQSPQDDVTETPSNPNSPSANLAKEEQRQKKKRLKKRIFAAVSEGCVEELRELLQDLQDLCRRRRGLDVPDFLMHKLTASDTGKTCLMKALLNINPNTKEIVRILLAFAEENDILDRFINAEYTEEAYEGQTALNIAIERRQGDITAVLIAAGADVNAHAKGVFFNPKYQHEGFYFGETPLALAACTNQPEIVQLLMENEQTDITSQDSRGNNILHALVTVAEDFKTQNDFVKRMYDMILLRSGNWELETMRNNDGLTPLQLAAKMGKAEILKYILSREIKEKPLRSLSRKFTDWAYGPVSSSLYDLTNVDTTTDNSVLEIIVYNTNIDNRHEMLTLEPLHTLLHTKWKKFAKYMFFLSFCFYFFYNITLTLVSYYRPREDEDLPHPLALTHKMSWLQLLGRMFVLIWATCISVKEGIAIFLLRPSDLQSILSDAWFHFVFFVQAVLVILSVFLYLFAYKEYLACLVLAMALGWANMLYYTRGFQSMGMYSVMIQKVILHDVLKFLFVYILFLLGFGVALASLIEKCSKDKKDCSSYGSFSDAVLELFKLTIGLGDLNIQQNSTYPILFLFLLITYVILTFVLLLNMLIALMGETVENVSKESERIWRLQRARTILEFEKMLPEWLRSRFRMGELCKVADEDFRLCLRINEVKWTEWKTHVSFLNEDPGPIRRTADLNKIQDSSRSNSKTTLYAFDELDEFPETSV
The series is described as follows: Whole-cell patch clamp in CHO cells transfected with mouse Trpv3 cDNA. It counts as cell-based. The following applies: miR-711 10 μM; carvacrol 300 μM. The procedure:
Constructs. The cDNAs of mouse pcDNA3.1-Trpa1, pcDNA3.1-Trpv1, pcDNA3.1-Trpv2, pcDNA3.1-Trpv3, and pcDNA3.1-Trpv4 were kindly provided Dr. Sun Work Hwang from Korea University. Mouse Trpa1 cDNA was subcloned into pCGN-HA backbone (Addgene) using In-Fusion HD Cloning Kit (Clontech Laboratories, CA). Q5 Site-Directed Mutagenesis Kit was used to generate mTrpa1 mutant (M1-M13) based on pCGN-mTrpa1.
Cell Culture and Transfection. CD4^+ Myla cell line was cultured in RPMI 1640 media (GIBCO), supplemented with 2 mM Glutamine (GIBCO), 100 U/mL IL-2 (Sigma), 100 U/mL IL-4 (Sigma), and 10% human AB serum (Sigma). HuT 102 cell line was cultured in RPMI 1640 supplemented with pyruvate, HEPES, and 10% (v/v) fetal bovine serum (HyClone). HEK293-hTRPA1 stable cell line was cultured in MEM (GIBCO) containing 2 mM Glutamine, 4 μg/mL Blasticidin, 10% FBS (v/v). B16 and CHO cells were cultured in high glucose (4.5 g/L) Dulbecco's Modified Eagle's Medium (GIBCO) containing 10% (v/v) fetal bovine serum (GIBCO). Culture media were supplemented with 50 units/mL of penicillin and 50 μg/mL streptomycin, and cultures were maintained with 5% CO2 in 37° C. incubator. Transfection (2 μg cDNA) was performed with Lipofectamine™ 2000 Reagent (Invitrogen) at 80% confluency and the transfected cells were cultured in the same media for 48 hr before electrophysiological and biochemical studies. […]
On the technique in general: The patch-clamp technique gives a direct electrical read-out from membranes.

For series [2], the system named is calcium channels. Nature of the series: Calcium current recording in mouse DRG neurons. It counts as cell-based. To be noted: 10 μM, 1 min. The procedure: To test the effects of miR-711 on calcium channels, calcium currents were recorded in mouse DRG neurons (Andrade et al., Nat. Neurosci. 2010, 13, 1249-1256). Calcium current was evoked by a 40-ms step depolarization to −10 mV from the holding potential of −80 mV, using i) external solution (mM): 135 mM TEA-C1, 1 mM CaCl2, 10 mM HEPES, 4 mM MgCl2 and 0.1 μM TTX, adjusted to a pH of 7.4 with TEA-OH, and ii) the pipette solution: 126 mM CsCl, 5 mM Mg-ATP, 10 mM EGTA and 10 mM HEPES, adjusted to a pH of 7.3 with CsOH.

The record followed here is patent US20210283163A1, “COMPOSITIONS AND METHODS FOR THE TREATMENT OF ACUTE AND CHRONIC PRURITIS” (Duke University, priority 2018, published 2021).

Consider “miR-711: mmu-miR-711: gggacccggggagagauguaag (SEQ ID NO: 5) (GGGACCCGGGGAGAGAUGUAAG; chemistry not given here)”, for which, in series [1], the inward currents entry is listed as “failed to trigger inward currents”. Further, in series [2], the “calcium currents in DRG neurons” value is “did not alter calcium currents”.
